Consider 1 substance from US8608961B2, “Method for affinity chromatography of antithrombin III” (Aventis Pharma S.A., priority 2005, dated 2013).

In the assay the test system is factor Xa. The assay is described as follows: anti-Xa activity of fractions separated by ATIII affinity chromatography. The note with it: fractions of LMWH (hexasaccharides) separated on ATIII affinity column 1 (protection: enoxaparin) or column 2 (protection: heparin); hexasaccharide for comparison. The assay is classed as biochemical. An excerpt:
The composition of the elution fractions may then be analyzed according to methods well known to those skilled in the art. Thus, if the fractions analyzed comprise oligosaccharides, those skilled in the art may use the analytical methods described in the prior art: for example and in a nonlimiting manner, capillary electrophoresis, MALDI-TOF mass spectrophotometry, high performance liquid chromatography. Those skilled in the art may also use a biological assay, such as the factor Xa inhibition assay.
In order to corroborate the structural analysis, the anti-Xa activities of the fractions having affinity and not having affinity, separated in column 1 (protection: enoxaparin), were determined.

As for “ΔUA-(1→4)α-GlcNAc(6S)-(1→4)β-GlcA-(1→4)α-GlcNS(NS,3,6S)-(1→4)β-IdA2S-(1→4)α-GlcNS(NS,6S)”, the anti-Xa activity is 650-700 IU/mg.
